# Data as given in US20030232102A1, “Total glycosides of paeony, method to prepare the same and uses thereof” (priority 2001, published 2003).
# Read-outs that look alike come from different tables or passages of the source.
# Tests used:
# pregnant Wistar rats = assay: Test of teratogenesis in pregnant rats; format: in vivo; conditions: 250 mg/kg
# Description: Ninety pregnant Wistar rats were numbered by their date of fertilization and randomly divided into five groups. The other two were for the control groups.
# A positive and a negative control groups were also set up, rats were given acetosalicylic acid (250 mg/kg) in the positive group and distilled water of the same volume in the negative group.
# The positive control group was treated with the acetosalicylic acid from day 9 to 11. Both were by gastric injection.
# The body weight of rats in all groups was taken once every three days, and the amount of drugs were adjusted individually after the body weight. Rats were killed at day 20 of pregnancy, wombs and embryos were extracted by cesarean section, which was for the study and examination in a traditional way.
# [1] = test system: abdominal cavity macrophage; assay: Kinemics of abdominal cavity macrophage PGE2 release in arthritis rats (Paeoniflorin R1); format: in vivo; conditions: treatment from 1st day after inflammatory injection, sacrificed day 7, 14, 21, 28; FIG. 46
# Text: Kinemics in Abdominal Cavity Macrophage Release PGE2
# Paeoniflorin R1 treatment started the 1st day after inflammatory injection, animal sacrificed on day 7, 14, 21, and 28.
# [2] = test system: Wistar rats, Model of Arthritis (BCG vaccine); assay: Primary inflammation: degree of swelling of injected feet, BCG vaccine arthritis model; format: in vivo
# Description: (§1) Animal: Wistar rats, 2-3 months, 180±30 g.
# (§2) Chemical agents: Paeoniflorin R1, Lobenzarit disodium (CCA), Indomethacin (IM), and BCG vaccine
# (§3) Model of Arthritis: inject 0.1 ml of 10 mg BCG vaccine to the right hind foot, bottom side, intracutaneously.
# Primary inflammation: Degree of swelling of injected feet (primary inflammation): oral treatment was given 30 minutes before the inflammatory injection (BCG vaccine). The degree of swelling was measured 1, 3, 5, and 7 days after the injection.
# Oral administration of Paeoniflorin R1 30˜60 minutes before inflammatory injection.
# TGP's influence on degree of swelling of injected feet (primary inflammation)
# synovial cells = assay: IL-1, TNF and PGE2 produced by synovial cells of arthritis rats (Paeoniflorin R1); format: in vivo; conditions: 25 mg/kg from 12 days after inflammatory injection, sacrificed day 22; P<0.01
# Description: IL-1, TNF, and PGE2 Produced by Synovial Cells
# Paeoniflorin R1 treatment (25 mg/kg) started at 12 days after inflammatory injection, animal sacrificed on day 22.
# [3] = test system: Wistar rats, Model of Arthritis (BCG vaccine); assay: Secondary inflammation: swelling of opposite non-injected feet and thymus weight, BCG vaccine arthritis model; format: in vivo; conditions: for Degree of Swelling Day 12 / Degree of Swelling Day 16 / Degree of Swelling Day 20 / Degree of Swelling Day 24 / Degree of Swelling Day 28: non-injected feet
# Description: as §1, §2, §3
# Secondary inflammation: Swelling degree of the opposite non-injected feet (secondary inflammation): oral treatment was given 12-28 days after the inflammatory injection. The degree of swelling was measured 12, 16, 20, 24 and 28 days after the injection.
# Groups of animals for secondary inflammation: 6 groups, each contains 6 rats, groups are: 1) Normal control, receive no inflammatory injection and any pre treatment; 2) Negative control, receive inflammatory injection and no treatment; 3) Positive control, receive inflammatory injection and CCA treatment; 4) Paeoniflorin R1 groups (5, 25, 50 mg/kg/d) oral administration of Paeoniflorin R1 30˜60 minutes before inflammatory injection.
# TGP's influence on degree of swelling of opposite, non-injected feet (secondary inflammation)
# [4] = test system: sub-group T cell in peripheral circulation; assay: Sub-group T cell (Th/Ts) in peripheral circulation of arthritis rats (Paeoniflorin R1); format: in vivo; conditions: 25 mg/kg from 18 days after inflammatory injection, sacrificed day 26; P<0.01; FIG. 45
# Description: Sub-Group T Cell in Peripheral Circulation
# Paeoniflorin R1 treatment (25 mg/kg) started at 18 days after inflammatory injection, animal sacrificed on day 26.
# [5] = test system: abdominal cavity macrophage; assay: H2O2, IL-1 and PGE2 produced by abdominal cavity macrophage of arthritis rats (Paeoniflorin R1); format: in vivo; conditions: 25 mg/kg from 7 days after inflammatory injection, sacrificed day 17; FIG. 44
# Description: Amount of H2O2, IL-1, and PGE2 produced by abdominal cavity macrophage: Use 5 rats in each group, paeoniflorin R1 (25 mg/kg) treatment starts 7 days after inflammatory injection, animal sacrificed on day 17.
# [6] = test system: histidine-requiring salmonell typhimurrium mutants TA 97, TA 98, Ta 100 and TA 102; conditions: +S9, 2-AF 10 μg/plate
# Description: That was a parallel test between two groups of plates with or without the mixture of S9.
# Each course was to be performed twice for three plates of different concentrations. Positive indicators and solvent control were included within all courses. Courses were performed with a ‘pre-incubation’ method, and the final result comes out in average from total six values.
# [7] = test system: Chinese hamaster lung fibroblast (CHL) cells; format: cell-based
# Description: TGP, was dissolved in methyl-sulfoxide.
# With method of Ishidate (1981), cells were collected in 24 and 48 hours for S9− groups and 24 hours for S9+. All assays were performed twice and their average was taken for final results.
# ICR mice [8] = conditions: CTX 80 mg/kg
# Description: ICR mice of sexual maturity, all males. Six random groups with eight mice in each one.
# With a gradient of 4:1, the four concentrations were set at 2500 mg/kg, 625 mg/kg, […] and 39 mg/kg.
# The drug was administered by gastric injection at the above doses together with the positive indicator (Cytoxan) and the solvent control. The course was repeated after 24 hours and animals were killed six hours after the second administration. Samples were taken and examined.
# ICR mice [9] = assay: Enhanced delayed type hypersensitivity (DTH) reaction of mice induced by cyclophosphamide; format: in vivo; conditions: Cy + Solvent, Cy 250 mg/kg i.p. at d-3
# Description: Cyclophosphamide was administered 3 days before (d-3) the first day sensitization (enhanced DTH model).
# [10] = test system: mice, IgM in the spleen cells; assay: Weakened IgM formation of mice induced by cyclophosphamide; format: in vivo; conditions: Cy + solvent, Cy 125 mg/kg i.p. at d-3
# Description: All groups of mice were sensitized with 0.2 ml 10% SRBC suspension i.p., mice were also administered 125 mg/kg of cyclophosphamide 3 days before the sensitization to make up the models of weakened immunoreactions. […] The mice were killed on the fifth day, organs of spleens and thymus were weighted and quantity of IgM in the spleen cells examined.
# [11] = test system: mice, IgM in the spleen cells; assay: Enhanced IgM formation of mice induced by cyclophosphamide (spleen cell transfer); format: in vivo; conditions: group C: donor mice SOI + Cy + solvent, Cy 100 mg/kg i.p.
# Text: See table 49 and table 50 for grouping and test procedures: spleen cells of donor mice are transferred to acceptor mice. And, SRBC (4×10^8/mouse i.p.) are given to the acceptor mice for additional immune enhancement. Acceptors are killed on the fifth day of transference and examined for the quantity of IgM in the spleen cells.
# [12] = test system: Sprage-Dawley (SD) rats, adjuvant arthritis; assay: Adjuvant arthritis in rats (FCA): secondary inflammation, non-injected foot, thymus, pathology; format: in vivo
# [13] = test system: Sprage-Dawley (SD) rats, adjuvant arthritis; assay: Adjuvant arthritis in rats (FCA): primary inflammation, injected foot; format: in vivo
# [14] = S9+, CP (60.0 μg/ml, 24, by row order of Table 43)
compound,measurement,setting,value
CC(=O)Oc1ccccc1C(=O)O [acetosalicylic acid],"malformation in appearance (harelip, split tongue, short body, abnormal limbs)",pregnant Wistar rats,4.4%
same,deformity rate in skeletal system,pregnant Wistar rats; P<0.01,69.5%
same,growth of embryo rats vs negative control,pregnant Wistar rats; P<0.01 and P<0.05,showed differences in the body weight and length of embryos
same,"absorptive embryo rate, dead embryo rate, survival rate vs negative control","pregnant Wistar rats; day 9 to 11, P<0.01","much higher absorptive embryo rate, and dead embryo rate, and lower survival rate"
"2-hydroxy-3 Methyl-Glucoside-4-Oxo-7-Carbonyl-Tricyclo [3,2,2,0^1,2]-Nonanyl-Benzoicmethoxycarbonyl [Paeoniflorin R1]",abdominal cavity macrophage PGE2 release,[1],effective in PGE2 release
same,Degree of Swelling Day 1,[2]; 25 mg/kg/d oral,0.59
same,Degree of Swelling Day 3,[2]; 25 mg/kg/d oral,0.81
same,Degree of Swelling Day 5,[2]; 25 mg/kg/d oral,0.50
same,Degree of Swelling Day 7,[2]; 25 mg/kg/d oral,0.40
same,"IL-1, TNF, and PGE2 produced by synovial cells (result worded as Th/Ts)",synovial cells,can improve Th/Ts
same,W. of Thymus Glands,[3]; 5 mg/kg/d oral,16.3 mg/kg body W.
same,W. of Thymus Glands,[3]; 25 mg/kg/d oral,19.4 mg/kg body W.
same,W. of Thymus Glands,[3]; 50 mg/kg/d oral,13.9 mg/kg body W.
same,Degree of Swelling Day 12,[3]; 5 mg/kg/d oral,0.35
same,Degree of Swelling Day 16,[3]; 5 mg/kg/d oral,0.42
same,Degree of Swelling Day 20,[3]; 5 mg/kg/d oral,0.33
same,Degree of Swelling Day 24,[3]; 5 mg/kg/d oral,0.25
same,Degree of Swelling Day 28,[3]; 5 mg/kg/d oral,0.26
same,Degree of Swelling Day 12,[3]; 25 mg/kg/d oral,0.41±
same,Degree of Swelling Day 16,[3]; 25 mg/kg/d oral,0.39
same,Degree of Swelling Day 20,[3]; 25 mg/kg/d oral,0.20
same,Degree of Swelling Day 24,[3]; 25 mg/kg/d oral,0.15
same,Degree of Swelling Day 28,[3]; 25 mg/kg/d oral,0.23
same,Degree of Swelling Day 12,[3]; 50 mg/kg/d oral,0.40
same,Degree of Swelling Day 16,[3]; 50 mg/kg/d oral,0.39
same,Degree of Swelling Day 20,[3]; 50 mg/kg/d oral,0.30
same,Degree of Swelling Day 24,[3]; 50 mg/kg/d oral,0.27
same,Degree of Swelling Day 28,[3]; 50 mg/kg/d oral,0.24
same,Th/Ts in peripheral circulation,[4],can improve Th/Ts
same,"Amount of H2O2, IL-1, and PGE2 produced by abdominal cavity macrophage",[5],can decrease the above reaction
"COc1ccc2c(c1)c(CC(=O)O)c(C)n2C(=O)c1ccc(Cl)cc1 [IM, Indomethacin]",abdominal cavity macrophage PGE2 release,[1],effective in PGE2 release
same,Degree of Swelling Day 1,[2]; 2 mg/kg/d oral,0.52
same,Degree of Swelling Day 3,[2]; 2 mg/kg/d oral,0.57
same,Degree of Swelling Day 5,[2]; 2 mg/kg/d oral,0.34
same,Degree of Swelling Day 7,[2]; 2 mg/kg/d oral,0.30
Nc1ccc2c(c1)Cc1ccccc1-2 [2-AF],"reverting colonies, AT 97",[6],598 ± 27.4
same,"reverting colonies, AT 98",[6],974 ± 30.7
same,"reverting colonies, AT 100",[6],772 ± 29.8
"CO[C@@]12[C@H](COC(N)=O)C3=C(C(=O)C(C)=C(N)C3=O)N1C[C@@H]1N[C@@H]12 [MMC, Mitomycin C]",Deformation (types),[7],"g, b, p, t, f"
same,Deformation Rate,[7],79.5%
"O=P1(N(CCCl)CCCl)NCCCO1 (centres unmarked) [CTX, Cytoxan]",MPCE % ± SD,ICR mice [8],41.37 ± 10.29%
"O=P1(N(CCCl)CCCl)NCCCO1 (centres unmarked) [CP, Cyclophosphamide]",Degree of ear swelling,ICR mice [9],28.1 ± 7.2
same,Result of chromosome aberration test,"[7]; CP (15 μg/ml, 48, by row order of Table 43)",+ +
same,Result of chromosome aberration test,"[7]; CP (60.0 μg/ml, 24, by row order of Table 43)",+ +
same,Deformation (types),[7]; [14],"g, p, b, r, t, f"
same,Deformation Rate,[7]; [14],44.0%
same,Deformation Rate,"[7]; S9−, CP 15 μg/ml, incubation 48",34.5%
same,Quantity of Ig M (A value),[10],0.41 ± 0.10
same,Weight of Spleen,[10],56.6 +11.5
same,weight of thymus,[10],6.2 ± 4.7
same,"Ig M (A), acceptor mice",[11],0.53 ± 0.03^ΔΔ
same,Rate of inhibition,[11],24.3
"O=C(O)c1ccccc1Nc1cc(Cl)ccc1C(=O)O [CCA, Lobenzarit disodium]",weight of thymus,"[12]; AA rats, gastric infusion d12 through d20",the weight of their thymus are gained
same,joint swelling,"[12]; AA rats, gastric infusion d12 through d20, all three doses of TGP, one dose CCA",certain improvements in joint swelling
same,weight of thymus,[12]; CCA 50 mg/kgd,14.3 ± 3.9
same,"Degree of Swelling, non-injected foot","[12]; d20, CCA 50 mg/kgd",0.41 ± 0.22 mL
same,"Degree of Swelling, non-injected foot","[12]; d24, CCA 50 mg/kgd",0.14 ± 0.15 mL
same,"Degree of Swelling, non-injected foot","[12]; d28, CCA 50 mg/kgd",0.05 ± 0.02 mL
same,"Degree of swelling, injected foot","[13]; d3, CCA 50 mg/kgd",0.94 ± 0.17
same,"Degree of swelling, injected foot","[13]; d5, CCA 50 mg/kgd",0.67 ± 0.18
same,"Degree of swelling, injected foot","[13]; d7, CCA 50 mg/kgd",0.63 ± 0.18
same,Degree of Swelling Day 1,[2]; 50 mg/kg/d oral,0.65
same,Degree of Swelling Day 3,[2]; 50 mg/kg/d oral,0.96
same,Degree of Swelling Day 5,[2]; 50 mg/kg/d oral,0.68
same,Degree of Swelling Day 7,[2]; 50 mg/kg/d oral,0.65
same,W. of Thymus Glands,[3]; 50 mg/kg/d oral,14.4 mg/kg body W.
same,Degree of Swelling Day 12,[3]; 50 mg/kg/d oral,0.40
same,Degree of Swelling Day 16,[3]; 50 mg/kg/d oral,0.55
same,Degree of Swelling Day 20,[3]; 50 mg/kg/d oral,0.42
same,Degree of Swelling Day 24,[3]; 50 mg/kg/d oral,0.14
same,Degree of Swelling Day 28,[3]; 50 mg/kg/d oral,0.05
